Data taken from the supplement of paper PMC10627819.
Values after ≈ are worked out from the molar mass of the structure shown.

Assays:
S. pneumoniae D39V [1] = test system: S. pneumoniae D39V
S. aureus DSM 20231 [2] = test system: S. aureus DSM 20231
S. aureus Newman [3] = test system: S. aureus Newman
B. subtilis 168 [4] = experiment: fitness (endpoint OD595 vs no drug) (fraction); higher = more growth
Procedure, shortened: (§1)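 Fitness was measured as bacterial growth in 384-well plates inoculated at OD595 0.01 (30 µl, or 55 µl for S. pneumoniae). Media were TSB, LB Lennox or CY, at 37 °C. OD595 was read every 30 min for 14 h and background-subtracted against the first reading. Fitness is OD595 at the transition into stationary phase divided by the robust mean of no-drug control wells, capped at 1.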

B. subtilis 168 [5] = test system: B. subtilis 168
S. pneumoniae D39V [6] = experiment: fitness (endpoint OD595 vs no drug) (fraction); higher = more growth
Procedure, shortened: as §1

S. aureus DSM 20231 [7] = experiment: as above
Procedure, shortened: as §1

S. aureus Newman [8] = experiment: as above
Procedure, shortened: as §1

S. pneumoniae D39V [9] = experiment: Bliss interaction score (quartile over a dose matrix) (fitness difference); higher = more antagonism (negative = synergy)
Procedure, shortened: (§2)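 Each OD595 reading at entry into stationary phase was scaled to the robust mean of the untreated wells on its plate, with a ceiling of 1. These ratios define fitness, and single-drug fitness was inferred from combinations. The Bliss score compares observed fitness with the product-based expectation and is reported as quartiles across all replicate types, technical, biological and donor/recipient.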

S. aureus DSM 20231 [10] = experiment: as above
Procedure, shortened: as §2

S. aureus Newman [11] = experiment: as above
Procedure, shortened: as §2

B. subtilis 168 [12] = experiment: as above
Procedure, shortened: as §2
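Wherever Bliss interaction score (quartile over a dose matrix) is given: first quartile when negative (synergy) and third quartile when positive (antagonism).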

CO[C@@H]1[C@@H](OC(N)=O)[C@@H](O)[C@H](Oc2ccc3c(O)c(NC(=O)c4ccc(O)c(CC=C(C)C)c4)c(=O)oc3c2C)OC1(C)C [Novobiocin]
Conditions	MIC [µg/mL]
S. aureus DSM 20231 [2]	0.05 (≈ 0.0816 µM)
S. aureus Newman [3]	0.05 (≈ 0.0816 µM)
S. pneumoniae D39V [1]	2.5 (≈ 4.08 µM)

B. subtilis 168 [4]
Conditions	fitness
0.0125 µg/mL	0.921
0.025 µg/mL	0.956
0.05 µg/mL	0.986
0.1 µg/mL	0.993
0.2 µg/mL	≥ 1

CN[C@H](CC(C)C)C(=O)N[C@H]1C(=O)N[C@@H](CC(N)=O)C(=O)N[C@H]2C(=O)N[C@H]3C(=O)N[C@H](C(=O)N[C@H](C(=O)O)c4cc(O)cc(O)c4-c4cc3ccc4O)[C@H](O[C@H]3C[C@](C)(N)[C@@H](O)[C@H](C)O3)c3ccc(c(Cl)c3)Oc3cc2cc(c3O[C@@H]2O[C@H](CO)[C@@H](O)[C@H](O)[C@H]2O[C@H]2C[C@](C)(NCc3ccc(-c4ccc(Cl)cc4)cc3)[C@@H](O)[C@H](C)O2)Oc2ccc(cc2Cl)[C@H]1O [Oritavancin]
Conditions	MIC [µg/mL]
S. aureus DSM 20231 [2]	4.5 (≈ 2.51 µM)
S. aureus Newman [3]	4.5 (≈ 2.51 µM)

CO[C@H]1/C=C/O[C@@]2(C)Oc3c(C)c(O)c4c(O)c(c(/C=N/N5CCN(C)CC5)c(O)c4c3C2=O)NC(=O)/C(C)=C\C=C\[C@H](C)[C@H](O)[C@@H](C)[C@@H](O)[C@@H](C)[C@H](OC(C)=O)[C@@H]1C [Rifampicin]
Conditions	MIC [µg/mL]
B. subtilis 168 [5]	0.125 (≈ 0.152 µM)
S. aureus DSM 20231 [2]	0.018 (≈ 0.0219 µM)
S. aureus Newman [3]	0.035 (≈ 0.0425 µM)
S. pneumoniae D39V [1]	0.4 (≈ 0.486 µM)

S. pneumoniae D39V [6]
Conditions	fitness
0.025 µg/mL	0.961
0.05 µg/mL	0.904
0.1 µg/mL	0.322
0.2 µg/mL	0.144

CN[C@@H]1[C@H](O)[C@H](NC)[C@H]2O[C@@]3(O)C(=O)C[C@@H](C)O[C@H]3O[C@@H]2[C@H]1O [Spectinomycin] + CC1=C\[C@@H](O)CC(=O)Cc2nc(co2)C(=O)N2CCC=C2C(=O)O[C@H](C(C)C)[C@H](C)/C=C/C(=O)NC\C=C\1 [Virginiamycin M1]
fitness, one replicate
Conditions	S. aureus DSM 20231 [7]	S. aureus Newman [8]	S. pneumoniae D39V [6]
first compound 4 µg/mL, partner 0.15 µg/mL	–	–	≥ 1
first compound 4 µg/mL, partner 0.3 µg/mL	–	–	0.939
first compound 4 µg/mL, partner 0.5 µg/mL	0.769	0.839	–
first compound 4 µg/mL, partner 1 µg/mL	0.735	0.882	–
first compound 4 µg/mL, partner 2 µg/mL	–	0.769	–
first compound 8 µg/mL, partner 0.15 µg/mL	–	–	0.944
first compound 8 µg/mL, partner 0.3 µg/mL	–	–	0.927
first compound 8 µg/mL, partner 0.5 µg/mL	0.735	0.817	–
first compound 8 µg/mL, partner 1 µg/mL	0.691	0.887	–
first compound 8 µg/mL, partner 2 µg/mL	–	0.787	–
first compound 16 µg/mL, partner 0.15 µg/mL	–	–	0.894
first compound 16 µg/mL, partner 0.3 µg/mL	–	–	0.93
first compound 16 µg/mL, partner 0.5 µg/mL	0.65	0.876	0.857
first compound 16 µg/mL, partner 1 µg/mL	0.704	0.777	0.731
first compound 16 µg/mL, partner 2 µg/mL	–	0.686	–
first compound 32 µg/mL, partner 0.0625 µg/mL	0.643	0.654	–
first compound 32 µg/mL, partner 0.125 µg/mL	0.736	0.629	–
first compound 32 µg/mL, partner 0.25 µg/mL	0.637	0.602	–
first compound 64 µg/mL, partner 0.0625 µg/mL	0.0659	0.0794	–
first compound 64 µg/mL, partner 0.125 µg/mL	0.0603	0.124	–
first compound 64 µg/mL, partner 0.25 µg/mL	0.0858	0.124	–

fitness
Conditions	first compound 2 µg/mL	first compound 4 µg/mL	first compound 8 µg/mL	first compound 16 µg/mL
B. subtilis 168 [4], partner 0.0625 µg/mL	0.916	0.979	0.915	–
B. subtilis 168 [4], partner 0.125 µg/mL	0.982	0.941	0.947	–
B. subtilis 168 [4], partner 0.25 µg/mL	≥ 1	0.972	0.875	–
S. aureus DSM 20231 [7], partner 0.0625 µg/mL	–	0.933	0.993	0.809
S. aureus DSM 20231 [7], partner 0.125 µg/mL	–	≥ 1	0.896	0.83
S. aureus DSM 20231 [7], partner 0.25 µg/mL	–	0.961	0.873	0.791
S. aureus Newman [8], partner 0.0625 µg/mL	–	0.936	0.997	0.934
S. aureus Newman [8], partner 0.125 µg/mL	–	0.944	≥ 1	0.961
S. aureus Newman [8], partner 0.25 µg/mL	–	0.942	≥ 1	0.937
S. pneumoniae D39V [6], partner 0.5 µg/mL	–	0.972	0.93	–
S. pneumoniae D39V [6], partner 1 µg/mL	–	0.96	0.916	–
S. pneumoniae D39V [6], partner 2 µg/mL	–	0.931	0.889	0.8

Conditions	Bliss interaction score
B. subtilis 168 [12]	0.042
S. aureus DSM 20231 [10]	-0.0719
S. aureus Newman [11]	0.0692
S. pneumoniae D39V [9]	0.052
